# Assay results published in the NIST ThermoML archive (doi:10.1016/j.fluid.2007.05.026).
# ± gives the expanded uncertainty stated by the source.
# Columns and labels:
# [1] = for mass density: 101.33 kPa, Vibrating tube method; for Normal melting temperature: visual observation
# [2] = refractive index (Na D-line) (dimensionless); conditions: 101.33 kPa, Liquid, Standard Abbe refractometry
Compound,"mass density ([1]; 298.15 K, Crystal)",Normal melting temperature ([1]; Crystal),refractive index ([2]; 314.45 K),"mass density ([1]; 314.45 K, Liquid)",refractive index ([2]; 298.15 K),"mass density ([1]; 298.15 K, Liquid)","Normal boiling temperature ([1]; Liquid, Manometric method)"
"Oc1ccc(O)cc1 [1,4-benzenediol]",1338 ± 2 kg/m3,171.40 ± 0.5 °C,–,–,–,–,–
Oc1ccccc1 [phenol],–,41.30 ± 0.5 °C,1.5425 ± 0.0007,1061 ± 1 kg/m3,–,–,–
CC(=O)CC(C)C [4-methylpentan-2-one],–,–,–,–,1.396 ± 0.0008,799.8 ± 0.3 kg/m3,117.60 ± 0.1 °C
